# Laboratory results from patent US9539298B2, “Lissencephaly therapeutic agent” (OSAKA CITY UNIVERSITY, priority 2010, dated 2017).
# How the values were obtained:
# [1] = tested on: LIS1 heterozygous adult mice; assay: LIS1 protein in adult mouse brains after SNJ-1945 intraperitoneal administration; assay type: in vivo; details: three weeks after birth
# Experimental: SNJ-1945 was dissolved in dimethyl sulfoxide (DMSO) at a concentration of 100 mg/ml, and intraperitoneally injected to LIS1 heterozygous mice so that the administration amount was 100 μg/per gram of body weight at the time of three weeks after birth. To determine the effect of SNJ-1945 administration, LIS1 proteins of normal adult mice and LIS1 heterozygous adult mice (administered with SNJ-1945) were measured. In the SNJ-1945 administration group, the brain tissues were taken at 0 hour (immediately after the administration), 1 hour, 2 hours, 4 hours, 8 hours, 12 hours, 16 hours, 24 hours, 48 hours, and 72 hours after the administration to measure LIS1 protein, so as to determine the effect of SNJ-1945 over time. Six mice for each group were used for the measurement of LIS1 protein (n=6).
# For the measurement of LIS1 protein amount, the weight of the brains was immediately measured as soon as the brains were removed.
# [2] = molecular target: T1, μ-calpain (derived from human red blood cells) (Homo sapiens, UniProt P07384); assay: Measurement of inhibitory activity against μ-calpain; assay type: biochemical; details: casein substrate, 30° C., 60 minutes; read-out: enzyme inhibitory activities (μM) μ-calpain
# T1 construct: derived from human red blood cells; purchased Cosmo Bio Co., Ltd; host or cells: human red blood cells (tissue-purified)
# T1 sequence (P07384 1-714): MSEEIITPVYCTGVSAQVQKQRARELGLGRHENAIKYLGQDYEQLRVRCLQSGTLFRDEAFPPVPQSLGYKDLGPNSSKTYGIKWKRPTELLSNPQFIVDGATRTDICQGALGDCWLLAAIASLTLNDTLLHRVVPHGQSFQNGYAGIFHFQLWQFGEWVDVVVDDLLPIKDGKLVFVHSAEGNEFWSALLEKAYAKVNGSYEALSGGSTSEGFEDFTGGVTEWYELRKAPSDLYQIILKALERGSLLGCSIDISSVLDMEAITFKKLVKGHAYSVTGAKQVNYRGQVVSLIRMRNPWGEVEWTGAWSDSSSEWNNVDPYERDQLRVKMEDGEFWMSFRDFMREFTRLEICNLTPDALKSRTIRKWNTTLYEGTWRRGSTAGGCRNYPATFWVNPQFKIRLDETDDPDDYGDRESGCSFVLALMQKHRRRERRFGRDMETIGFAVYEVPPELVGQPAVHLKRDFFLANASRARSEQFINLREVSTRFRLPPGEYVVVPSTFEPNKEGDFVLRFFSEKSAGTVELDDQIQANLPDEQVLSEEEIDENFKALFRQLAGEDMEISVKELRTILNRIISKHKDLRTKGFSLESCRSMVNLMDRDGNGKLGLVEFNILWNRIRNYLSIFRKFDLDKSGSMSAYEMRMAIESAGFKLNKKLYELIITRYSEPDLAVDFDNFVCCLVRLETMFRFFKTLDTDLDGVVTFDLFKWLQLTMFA
# T1 sequence (P04632 1-268 partner): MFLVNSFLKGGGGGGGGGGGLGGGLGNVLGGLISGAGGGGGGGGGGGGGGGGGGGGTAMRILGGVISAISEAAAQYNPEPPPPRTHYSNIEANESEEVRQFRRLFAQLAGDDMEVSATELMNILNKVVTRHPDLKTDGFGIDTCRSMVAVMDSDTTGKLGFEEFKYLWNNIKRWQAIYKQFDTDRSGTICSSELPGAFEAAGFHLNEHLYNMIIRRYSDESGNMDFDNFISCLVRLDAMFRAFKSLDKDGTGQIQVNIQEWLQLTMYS
# Experimental: The inhibitory activity against μ-calpain and m-calpain was assayed according to a published method (Anal. Biochem. 1993, vol. 208, p. 387-392). More specifically, 200 μL of a reaction solution containing 0.5 mg/mL casein, 50 mM Tris-HCl buffer (pH 7.4), 20 mM dithiothreitol and 1.0 nmol μ-calpain (derived from human red blood cells, Cosmo Bio Co., Ltd.) or m-calpain (derived from porcine kidney, Cosmo Bio Co., Ltd.) was added to individual 2.5 μL portions of DMSO solution containing a varying concentration of a test sample in a 96-well plate. Then, 50 μL of 20 mM aqueous calcium chloride was added thereto, and reaction was performed at 30° C. for 60 minutes. 100 μL of the reaction solution was transferred to another 96-well plate, and purified water (50 μL) and 50% aqueous solution (100 μL) of Protein Assay Dye Reagent (available from Bio-Rad Laboratories, Inc.; catalogue No. 500-600) were added thereto. The reaction mixture was allowed to stand at room temperature for 15 minutes, and its absorbance was measured at 595 nm. The absorbance of a reaction mixture prepared in the same manner as mentioned above, except that a DMSO solution containing no sample was used as a control value; and the absorbance of a reaction mixture prepared in the same manner as mentioned above, except that a 1 mM aqueous EDTA solution (50 μL) was used in place of 20 mM aqueous calcium chloride, was used as a blank value. […] Inhibition rate (%){1−(measured value−blank test value)/(control value−blank test value)}×100
# The concentrations (IC50) are shown in Table 1 as enzyme (calpain) inhibitory activities (μM).
structure (smiles),measurement,setting,value
"COCCOCCOC(=O)N[C@@H](CC(C)C)C(=O)N[C@@H](Cc1ccccc1)C(=O)C(=O)NC1CC1 [compound 17, ((1S)-1-((((1S)-1-Benzyl-2,3-dioxo-3-(cyclopropylamino)propyl)amino)carbonyl)-3-methylbutyl)carbamic acid 5-methoxy-3-oxapentyl ester]",LIS1 protein amount in adult brain,"[1]; 100 μg per gram of body weight IP, FIG. 8",recovered to substantially the normal level
same,duration of the effect on LIS1 protein after a single dose,[1]; 100 μg/g IP,continued for at least three days
same,IC50,[2],0.17 µM
